Assay results taken from ChEMBL document CHEMBL3286097, “Dual carbonic anhydrase/matrix metalloproteinase inhibitors incorporating bisphosphonic acid moieties targeting bone tumors” (Bioorg Med Chem Lett, 2014).
Active and inactive are the calls of the source. The rule behind the calls is not given here.

Tests used:
[1] = target: 72 kDa type IV collagenase (Homo sapiens, UniProt P08253)
[2] = target: Carbonic anhydrase 2 (Homo sapiens, UniProt P00918)
Description: Inhibition of human recombinant carbonic anhydrase 2 pretreated for 15 mins by stopped flow CO2 hydrase assay

[3] = target: Carbonic anhydrase 9 (Homo sapiens, UniProt Q16790)
Description: Inhibition of human recombinant carbonic anhydrase 9 pretreated for 15 mins by stopped flow CO2 hydrase assay

[4] = target: Carbonic anhydrase 12 (Homo sapiens, UniProt O43570)
Description: Inhibition of human recombinant carbonic anhydrase 12 pretreated for 15 mins by stopped flow CO2 hydrase assay

[5] = target: Carbonic anhydrase 14 (Homo sapiens, UniProt Q9ULX7)
Description: Inhibition of human recombinant carbonic anhydrase 14 pretreated for 15 mins by stopped flow CO2 hydrase assay

[6] = target: T1, Carbonic anhydrase 1 (Homo sapiens, UniProt P00915)
Target sequence in this assay (P00915 whole entry): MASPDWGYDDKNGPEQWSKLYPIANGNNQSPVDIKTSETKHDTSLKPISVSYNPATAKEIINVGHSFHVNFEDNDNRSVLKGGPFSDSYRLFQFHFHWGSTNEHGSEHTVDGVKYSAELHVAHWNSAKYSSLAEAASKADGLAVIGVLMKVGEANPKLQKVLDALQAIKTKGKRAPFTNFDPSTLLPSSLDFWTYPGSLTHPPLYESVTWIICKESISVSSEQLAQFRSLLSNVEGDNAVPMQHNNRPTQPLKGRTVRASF
Description: Inhibition of human recombinant carbonic anhydrase 1 pretreated for 15 mins by stopped flow CO2 hydrase assay

[7] = system: J774; test: Cytotoxicity against mouse J774 cells assessed as reduction in cell viability; assay type: functional, cell-based
[8] = target: T1, Carbonic anhydrase 1; test: Activation of human recombinant carbonic anhydrase 1 pretreated for 15 mins by stopped flow CO2 hydrase assay
Target sequence in this assay (P00915 2-261 limits assumed): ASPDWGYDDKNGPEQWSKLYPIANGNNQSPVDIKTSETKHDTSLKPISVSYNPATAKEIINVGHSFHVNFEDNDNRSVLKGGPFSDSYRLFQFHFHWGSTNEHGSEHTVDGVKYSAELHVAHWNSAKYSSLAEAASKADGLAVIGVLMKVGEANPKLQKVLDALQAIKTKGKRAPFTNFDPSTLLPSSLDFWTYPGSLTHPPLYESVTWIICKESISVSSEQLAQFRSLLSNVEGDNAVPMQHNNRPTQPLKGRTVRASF

Chain of Carbonic anhydrase 14 (Q9ULX7 whole entry): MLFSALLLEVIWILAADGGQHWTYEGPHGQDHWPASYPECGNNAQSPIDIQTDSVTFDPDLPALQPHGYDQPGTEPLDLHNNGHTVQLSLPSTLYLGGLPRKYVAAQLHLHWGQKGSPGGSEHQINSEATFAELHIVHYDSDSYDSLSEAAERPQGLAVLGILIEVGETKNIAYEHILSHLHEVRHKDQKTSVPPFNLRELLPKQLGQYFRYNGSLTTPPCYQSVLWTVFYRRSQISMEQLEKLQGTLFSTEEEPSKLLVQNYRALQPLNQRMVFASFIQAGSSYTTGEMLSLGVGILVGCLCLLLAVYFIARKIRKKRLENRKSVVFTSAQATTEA
Chain of 72 kDa type IV collagenase (P08253 whole entry): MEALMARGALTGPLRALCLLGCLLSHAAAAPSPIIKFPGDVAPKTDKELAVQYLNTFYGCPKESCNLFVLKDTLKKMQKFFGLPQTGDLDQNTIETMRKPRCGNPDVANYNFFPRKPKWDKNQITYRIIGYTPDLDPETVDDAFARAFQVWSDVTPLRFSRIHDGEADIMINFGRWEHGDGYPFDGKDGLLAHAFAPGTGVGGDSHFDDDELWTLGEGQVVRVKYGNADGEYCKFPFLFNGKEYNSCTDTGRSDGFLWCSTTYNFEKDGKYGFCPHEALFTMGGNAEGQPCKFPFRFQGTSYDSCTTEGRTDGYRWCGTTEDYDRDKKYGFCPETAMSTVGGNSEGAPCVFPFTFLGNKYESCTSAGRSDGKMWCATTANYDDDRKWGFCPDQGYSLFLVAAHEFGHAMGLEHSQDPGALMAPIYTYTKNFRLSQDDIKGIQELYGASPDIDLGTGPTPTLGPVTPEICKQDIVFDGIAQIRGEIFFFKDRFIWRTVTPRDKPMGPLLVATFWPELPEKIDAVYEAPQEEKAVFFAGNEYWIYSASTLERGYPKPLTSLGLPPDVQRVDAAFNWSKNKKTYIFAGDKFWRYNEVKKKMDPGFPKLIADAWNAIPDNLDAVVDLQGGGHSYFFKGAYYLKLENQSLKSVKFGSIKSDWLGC
Chain of Carbonic anhydrase 12 (O43570 whole entry): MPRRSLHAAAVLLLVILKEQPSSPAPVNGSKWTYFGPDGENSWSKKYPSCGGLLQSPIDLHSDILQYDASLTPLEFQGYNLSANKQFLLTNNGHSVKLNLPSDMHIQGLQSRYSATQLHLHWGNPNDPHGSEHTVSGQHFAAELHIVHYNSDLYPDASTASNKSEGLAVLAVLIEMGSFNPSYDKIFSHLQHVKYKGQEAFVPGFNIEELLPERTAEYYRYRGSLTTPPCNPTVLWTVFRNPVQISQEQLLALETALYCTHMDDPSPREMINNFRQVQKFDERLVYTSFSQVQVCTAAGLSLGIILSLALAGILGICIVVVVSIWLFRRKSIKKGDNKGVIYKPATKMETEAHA

Compound | IC50 [1] [µM] | IC50 [2] [µM] | IC50 [3] [nM] | IC50 [4] [nM] | IC50 [5] [nM] | IC50 [6] [µM] | IC50 [7] [µM] | Activity [8]
O=P(O)(O)C(P(=O)(O)O)S(=O)(=O)c1ccc(Br)cc1 | 52 | > 10 | > 10000 | 225 | 6050 | > 10 |  | 
O=P(O)(O)C(NS(=O)(=O)c1ccc(-c2cccs2)cc1)P(=O)(O)O | 0.23 | 0.504 | 601 | 87 | 593 | 6.17 | 12 | 
O=[N+]([O-])c1cccc(S(=O)(=O)NC(P(=O)(O)O)P(=O)(O)O)c1 | 16 | 3.82 | 2670 | 794 | > 10000 | > 10 |  | 
COc1ccc(S(=O)(=O)NC(P(=O)(O)O)P(=O)(O)O)cc1 | 19 | > 10 | 90 | 376 | 516 | > 10 |  | 
O=P(O)(O)C(NS(=O)(=O)c1ccc(-c2ccc(Cl)cc2)cc1)P(=O)(O)O | 0.037 | 2.66 | 6130 | 476 | 2440 | 1.75 | 1.7 | 
Cc1ccc(S(=O)(=O)NC(P(=O)(O)O)P(=O)(O)O)cc1 | 18 | > 100 | 200 | 461 | 541 | > 10 |  | 
O=P(O)(O)C(O)(Cn1ccnc1)P(=O)(O)O [ZOLEDRONIC ACID] |  |  |  |  |  | > 10 | 7.8 | 
O=P(O)(O)CP(=O)(O)O [MEDRONIC ACID] | 49 | 1250 | 860000 |  |  |  |  | Active
O=[N+]([O-])c1ccc(S(=O)(=O)NC(P(=O)(O)O)P(=O)(O)O)cc1 | 4.9 | 1.83 | 78 | 92 | 92 | > 10 |  | 
O=P(O)(O)C(NS(=O)(=O)c1ccccc1)P(=O)(O)O | 15.8 | > 100 | 397 | 855 | 3310 | > 10 |  | 
O=P(O)(O)C(NS(=O)(=O)c1ccc(Cl)cc1)P(=O)(O)O | 9.5 | 6.16 | 95 | 464 | 6590 | > 10 |  | 
O=C(NC(P(=O)(O)O)P(=O)(O)O)c1ccc(Br)cc1 | 30 | > 10 | > 10000 | 278 | 6050 | > 10 |  | 
COc1ccc(-c2ccc(S(=O)(=O)NC(P(=O)(O)O)P(=O)(O)O)cc2)cc1 | 0.11 | 0.07 | 84 | 76 | 70 | 0.041 | 12 | 
O=P(O)(O)C(NS(=O)(=O)c1ccc(Br)cc1)P(=O)(O)O | 4.8 | > 10 | 234 | 62 | 898 | > 10 |  | 
O=[N+]([O-])c1ccc(-c2ccc(S(=O)(=O)NC(P(=O)(O)O)P(=O)(O)O)cc2)cc1 | 0.192 | 0.071 | 596 | 65 | 82 | 9.03 | 32 | 
O=P(O)(O)C(NS(=O)(=O)c1ccc(-c2ccccc2)cc1)P(=O)(O)O |  | 1.41 | 347 | 386 | 729 | 6.8 | 4.9 | 
